{"source": "patent US20030138857A1", "about": "“Method of inhibiting atherosclerotic plaque destabilization” (priority 2002, published 2003)", "molecules": {"B1": {"name": "M-CSF: recombinant macrophage colony-stimulating factor (R&D Systems), hematopoietic growth factor (protein, UniProt P09603 33-554, looked up)", "Macrophage colony-stimulating …": "EEVSEYCSHMIGSGHLQSLQRLIDSQMETSCQITFEFVDQEQLKDPVCYLKKAFLLVQDIMEDTMRFRDNTPNAIAIVQLQELSLRLKSCFTKDYEEHDKACVRTFYETPLQLLEKVKNVFNETKNLLDKDWNIFSKNCNNSFAECSSQDVVTKPDCNCLYPKAIPSSDPASVSPHQPLAPSMAPVAGLTWEDSEGTEGSSLLPGEQPLHTVDPGSAKQRPPRSTCQSFEPPETPVVKDSTIGGSPQPRPSVGAFNPGMEDILDSAMGTNWVPEEASGEASEIPVPQGTELSPSRPGGGSMQTEPARPSNFLSASSPLPASAKGQQPADVTGTALPRVGPVRPTGQDWNHTPQKTDHPSALLRDPPEPGSPRISSLRPQGLSNPSTLSAQPQLSRSHSSGSVLPLGELEGRRSTRDRRSPAEPEGGPASEGAARPLPRFNSVPLTDTGHERQSEGSFSPQLQESVFHLLVPSVILVLLAVGGLLFYRWRRRSHQEPQRADSPLEQPEGSPLTQDDRQVELPV"}, "B2": {"name": "abciximab: chimeric monovalent and humanized monoclonal antibody Fab fragment; GP IIb/IIIa blocker that binds Mac-1 (antibody, chains of the INN, looked up, V domains shown)", "VH": "EVQLQQSGTVLARPGASVKMSCEASGYTFTNYWMHWVKQRPGQGLEWIGAIYPGNSDTSYIQKFKGKAKLTAVTSTTSVYMELSSLTNEDSAVYYCTLYDGYYVFAYWGQGTLVTVSA", "VL": "EIVLTQSPVTLSVTPGDSVSLSCRASRDISNNLHWFQQTSHESPRLLIKYASQSMSGIPSRFSGSGSGTDFTLSINSVETEDFGMYFCQQTNSWPYTFGGGTKLEIK", "modifications": "Fab"}}, "system": "VSMCs", "test": "Monocyte/VSMC co-culture apoptosis assay (Hoechst 33342/propidium iodide, apoptotic index)", "type": "cell-based, human", "conditions": "for inhibition of M-CSF-triggered, monocyte-induced apoptosis of VSMCs: eptifibatide 5 μg/ml, tirofiban 0.35 μg/ml, compared with abciximab; for VSMC apoptosis: M-CSF 100 ng/mL", "description": "VSMCs (passage 3 to 7) were obtained from Clonetics and from heart donors. VSMC identity was confirmed by α-smooth muscle actin staining. VSMCs initially were grown in growth medium (SmGM2; Clonetics) with 5% serum, and at 60% to 70% confluence, the media was changed to a serum-free medium (50:50 of DMEM/F12 media with 5 mL of ITS, PSA, L-glutamine, and nonessential amino acids per 500 mL of solution). After 72-hour incubation in the serum-free medium, VSMCs were co-cultured with monocytes. Co-culture experiments were also conducted with the use of SmGM2 media (5% serum) throughout the experiment.\nLeukocytes were isolated from buffy coat preparations (American Red Cross) by means of the Ficoll-Paque gradient method. Monocytes were isolated by means of an indirect magnetic labeling system and a monocyte isolation kit. The purity of monocytes obtained was […], which was confirmed by flow cytometry with anti-CD-14-FITC and anti-CD45-PE antibodies.\nFreshly isolated monocytes were added 3:1 to VSMCs. Conditions included wells with VSMCs alone (with or without M-CSF) and VSMCs co-cultured with monocytes (with and without M-CSF). Experiments were conducted with either no serum or 5% serum in media. Experiments were also repeated by preincubating VSMCs with a pan-caspase inhibitor (1 hour at 37° C.) (ZVAD-fmk [10 μmol/L/mL]; sequence Z-Val-Ala-Asp [Ome]-CH2 F), before addition of the MMs and M-CSF. Media and ZVAD-fmk were replenished every 24 hours. Specific controls were used for VSMCs with ZVAD-fmk.\nAbciximab, aggrastat, and eptifibatide, 3 established parenteral glycoprotein (GP) IIb/IIIa blockers, were added to MM and VSMC co-cultures before exposure to M-CSF. Controls were used for VSMCs with abciximab, aggrastat, and eptifibatide separately, with or without M-CSF. All experiments were done in triplicate.\nExperiments were done with the use of recombinant human IL-1 β (100 to 1000 pg/mL) in place of M-CSF. Anti-human M-CSF neutralizing antibody (1 μg/mL) was added along with IL-1 β, and the VSMCs plus monocytes were co-cultured for 72 hours. Isotype control, IgG2a (clone 20102.1), was used for VSMCs cultured with monocytes and IL-1 β.\nAfter 72-hour incubation, MM and VSMC co-cultures were stained live with the Vybrant Apoptosis kit (Molecular Probes), consisting of 2 nuclear stains, Hoechst 33342 (5 mg/mL) and propidium iodide (1 mg/mL). After incubation for 20 minutes at 37° C., coverslips were washed and the cell death index was estimated as previously described (Webster et al, J. Clin. Invest. 104:239-252 ([…])) (apoptotic index=dead cells/[live cells+dead cells]×100).", "note": "“And” between values parts separate entries of the source, which are not always exact repeats. Equal entries are not always repeated. Where a SMILES comes first, the peptide text is derived from it. The star is where a group is joined. Cbz = O=C(OCc1ccccc1)*; CH2F = FC*"}
{"molecule": "IL-1: recombinant human IL-1 β, monocyte-activating cytokine (R&D Systems)", "values": [{"measurement": "apoptotic index of VSMCs", "setting": "VSMCs with monocytes and IL-1 100 pg/mL in place of M-CSF", "result": "10.5±2.4", "unit": "%"}, {"measurement": "monocyte-induced VSMC death", "setting": "VSMCs with monocytes and IL-1 500 pg/mL", "result": "59.5±3.5", "unit": "%"}, {"measurement": "monocyte-induced VSMC death", "setting": "VSMCs with monocytes and IL-1 1000 pg/mL (1 ng/mL)", "result": "59±3.8", "unit": "%"}]}
{"molecule": "N=C(N)NCCCC[C@@H]1NC(=O)CCSSC[C@@H](C(N)=O)NC(=O)[C@@H]2CCCN2C(=O)[C@H](Cc2c[nH]c3ccccc23)NC(=O)[C@H](CC(=O)O)NC(=O)CNC1=O", "note": "[eptifibatide, reference compound] (HELM PEPTIDE1{[O=C(CCS[*:3])[*:2]].[N=C(N)NCCCC[C@H](N[*:1])C(=O)[*:2]].G.D.W.P.C.[am]}$PEPTIDE1,PEPTIDE1,1:R3-7:R3$$$V2.0)", "values": [{"measurement": "cell death index", "setting": "eptifibatide 5 μg/mL, VSMCs with monocytes and M-CSF", "result": "51.3±2.2", "unit": "%"}, {"measurement": "inhibition of M-CSF-triggered, monocyte-induced apoptosis of VSMCs", "result": "unable to confer similar protection"}]}
{"molecule": "CCCCS(=O)(=O)N[C@@H](Cc1ccc(OCCCCC2CCNCC2)cc1)C(=O)O", "note": "[tirofiban, reference compound]", "values": [{"measurement": "inhibition of M-CSF-triggered, monocyte-induced apoptosis of VSMCs", "result": "unable to confer similar protection"}, {"measurement": "cell death index", "setting": "tirofiban 0.35 μg/mL, VSMCs with monocytes and M-CSF", "result": "65.0±3.4", "unit": "%"}]}
{"molecule": "COC(=O)C[C@H](NC(=O)[C@H](C)NC(=O)[C@@H](NC(=O)OCc1ccccc1)C(C)C)C(=O)CF", "note": "[ZVAD-fmk, Z-Val-Ala-Asp [Ome]-CH2 F, reference compound] (Cbz-Val-Ala-Asp(OMe)-CH2F)", "values": [{"measurement": "apoptosis induced by co-culture with activated monocytes", "setting": "VSMCs preincubated with ZVAD-fmk (10 μmol/L/mL)", "result": "completely abrogated"}, {"measurement": "apoptotic index of VSMCs", "setting": "VSMCs preincubated with ZVAD-fmk (10 μmol/L/mL), co-cultured with monocytes and M-CSF, 72 h", "result": "15.4±0.4", "unit": "%"}]}
{"molecule": "B1", "values": [{"measurement": "VSMC apoptosis", "setting": "VSMCs in direct contact with activated monocytes", "result": "66.3±1.8", "unit": "%"}, {"measurement": "VSMC apoptosis", "setting": "monocytes separated from VSMCs by porous insert (3-μm pores)", "result": "21.0±1.0", "unit": "%"}, {"measurement": "apoptotic index of VSMCs", "setting": "VSMCs cultured with M-CSF (100 ng/mL) but without monocytes", "result": "15.7±1.5", "unit": "%"}, {"measurement": "apoptotic index of VSMCs", "setting": "VSMCs cultured with both M-CSF (100 ng/mL) and monocytes, 4 sets of experiments", "result": "58.8±3.3", "unit": "%"}, {"measurement": "apoptotic index of VSMCs", "setting": "VSMCs with M-CSF-activated monocytes, no inhibitor (comparison group of later experiments; M-CSF concentration not given)", "result": "60±2.1% and 60.0±3.0% and 51.9±1.6% and 51.9±1.8%"}]}
{"molecule": "B2", "values": [{"measurement": "apoptotic index of VSMCs", "setting": "abciximab 7 μg/mL, VSMCs with monocytes and M-CSF", "result": "19.1±2.3% and 19.1±2.2%"}, {"measurement": "apoptotic index of VSMCs", "setting": "abciximab 7 μg/mL, VSMCs with monocytes and M-CSF, listed as Abciximab", "result": "19.1±2.2", "unit": "%"}]}
